What was measured:
[1] = tested on: Pfa1 Gpx4−/− cells overexpressing murine FSP1 (mFSP1); assay: Cell viability (Alamar blue), dose-response toxicity in Gpx4-knockout cells expressing mFSP1; format: cell-based
Procedure: (§1) Cell Lines. 4-hydroxytamoxifen (TAM)-inducible Gpx4^−/− murine immortalized fibroblasts (Pfa1) were reported previously. These cells harbor two loxP-flanked Gpx4 alleles and stably express TAM inducible Cre recombinase allowing the genetic deletion of Gpx4 at will. For all experiments using Gpx4^−/− the well were treated with 4-hydroxitamoxifen (TAM) 1 µM. All cells were cultured with were cultured in DMEM-high glucose (4.5 g glucose/L) with 10% fetal bovine serum (FBS), Glutamax, and 1% penicillin/streptomycin (Gibco, Thermo Fischer) at 37 °C with 5% CO2 and verified to be negative for mycoplasma.
Cell viability assays. Alamar Blue method: Cells were seeded on 96-well plates (2000 cells per well) and treated with the compounds RSL3, iFSP1 and (liproxstatin-1) after plating. Cell viability was assessed 48 h (unless stated otherwise) after treatment using Alamar Blue as an indicator of viable cells. Alamar blue solution was made by dissolving of 1 g resazurin sodium salt (Thermo Fischer) in 200 mL sterile PBS and sterile filtrated through a 0.22 µm filter. Stock solutions were stored at 4 °C. The working solution was made freshly by adding 200 µL of the stock solution to 25 mL growth media. After 2–4 h incubation time, viability was estimated by measuring the fluorescence using a 540/35 excitation filter and a 590/20 emission on a Spark® microplate reader (Tecan, Zürich, Switzerland). […]

[2] = tested on: Pfa1 Gpx4−/− overexpressing hFSP1 F360A; assay: Cell viability (Alamar blue), hFSP1 F360A; format: cell-based, murine
Procedure: as §1
(§2) Cell viability assays. Alamar Blue method: Cells were seeded on 96-well plates (2000 cells per well) and treated with the compounds RSL3, iFSP1 and (liproxstatin-1) after plating. Cell viability was assessed 48 h (unless stated otherwise) after treatment using Alamar Blue as an indicator of viable cells. Alamar blue solution was made by dissolving of 1 g resazurin sodium salt (Thermo Fischer) in 200 mL sterile PBS and sterile filtrated through a 0.22 µm filter. Stock solutions were stored at 4 °C. The working solution was made freshly by adding 200 µL of the stock solution to 25 mL growth media. After 2–4 h incubation time, viability was estimated by measuring the fluorescence using a 540/35 excitation filter and a 590/20 emission on a Spark® microplate reader (Tecan, Zürich, Switzerland).

[3] = tested on: Pfa1 Gpx4−/− overexpressing hFSP1 Y296A/F360A; assay: Cell viability (Alamar blue), hFSP1 Y296A/F360A; format: cell-based, murine
Procedure: as §1, §2

[4] = biological target: T1, recombinant purified hFSP1 F360L mutant (Homo sapiens, UniProt Q9BRQ8, F360L); assay: NADH consumption assay (340 nm), FSP1 enzyme activity and inhibition; format: biochemical; conditions: iFSP1 2 µM; menadione as substrate
T1 construct: HisSUMO (cleaved yes); made in house; host or cells: E. coli BL21
T1 sequence (Q9BRQ8 whole entry F360L): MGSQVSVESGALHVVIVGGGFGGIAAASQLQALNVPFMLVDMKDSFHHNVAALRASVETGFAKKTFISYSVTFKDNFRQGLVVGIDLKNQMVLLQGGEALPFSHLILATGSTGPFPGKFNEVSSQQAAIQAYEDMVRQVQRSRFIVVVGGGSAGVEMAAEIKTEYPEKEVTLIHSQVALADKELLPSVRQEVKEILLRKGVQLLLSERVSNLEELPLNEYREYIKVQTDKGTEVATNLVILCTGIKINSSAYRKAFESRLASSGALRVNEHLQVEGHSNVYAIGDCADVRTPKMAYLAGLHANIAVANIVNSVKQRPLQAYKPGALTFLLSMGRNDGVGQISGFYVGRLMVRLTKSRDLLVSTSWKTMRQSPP
Procedure: (§3) FSP1 (human isoform 1, UniProt Q9BRQ8-1) WT (hFSP1 WT) and F360L (hFSP1 F360L) were expressed in E.coli BL21 as HisSUMO fusion protein. Cells were grown in lysogeny broth medium at 18 °C and induced with 0.5 mM isopropyl-β-thiogalactoside at a cell density A600 of 0.6. Cells were collected after overnight expression by centrifugation, resuspended in lysis buffer ([…], 50 mM Tris-HCl pH 8, 1 mM TCEP, 20 mM imidazole, protease inhibitor, DNase) and lysed by sonication. Cell debris was removed by centrifugation (30,000 × g) at 4 °C for 30 min, after which an IMAC purification was performed. […] IMAC eluates were analysed by SDS PAGE and concentrated to 15 mL (hFSP1 WT) and 5 mL (hFSP1 F360L), respectively. […] Pure fractions were pooled (C12—D11 for hFSP1 WT and C7—D4 for hFSP1 F360L), analysed by SDS-PAGE (Supplementary Fig. 4) and concentrated to 5.8 mL at 285.9 µM (hFSP1 WT) and 1.2 mL at 269.5 µM (FSP1 F360L), flash frozen in liquid N2 and stored at −80 °C.
(§4) Enzyme reactions were performed in TBS buffer (50 mM TRIS pH 8, 250 mM NaCl) on a 96-well plate in a 100 µL final volume. […] Absorbance (340 nm) was recorded every 30 s on a Spark® microplate reader (Tecan, Zürich, Switzerland) in order to determine NADH consumption. […]

[5] = biological target: T2, recombinant purified hFSP1 WT (Homo sapiens, UniProt Q9BRQ8); assay: as above; format: biochemical; conditions: iFSP1 2 µM; menadione as substrate
T2 construct: HisSUMO (cleaved yes); made in house; host or cells: E. coli BL21
T2 sequence (Q9BRQ8 whole entry): as the sequence (Q9BRQ8 whole entry F360L) above, with L360F counted along it
Procedure: as §3, §4

[6] = tested on: Pfa1 Gpx4−/− cell line overexpressing hFSP1, mFSP1 and hFSP1 F360L mutants; assay: BODIPY 581/591 C11 oxidation (flow cytometry); format: cell-based, murine; conditions: iFSP1 3 µM for 3 h; all conditions, highest for hFSP1 WT
Procedure: In total, 150,000 cells per well were seeded on 6-well dishes one day prior to the experiment. […] Cells were incubated with C11-BODIPY (581/591) (1 μM) for 30 min at 37 °C before they were harvested by trypsinisation. Subsequently, cells were resuspended in 500 μL of fresh PBS (DPBS, Gibco) and analyzed using a 488-nm laser excitation laser and fluorescence recorded on a (FACS Canto II, BD Biosciences). Data was collected from the FL1 detector (C11-BODIPY, Invitrogen) with a 502LP and 530/30 BP filter. At least 20,000 events were analyzed per sample. Data was analyzed using FlowJo Software version 10.8.1.

Water solubility = format: physicochemical
[7] = Mus musculus, x axis iFSP1 (μM), read-out: IC50 (dose-response toxicity)

## Cc1ccc(-c2c(C#N)c(N)n3c(nc4ccccc43)c2C#N)cc1 [iFSP1]
[1]; Mus musculus, mFSP1 WT, Δ curve (no Lip-1), Alamar blue, x axis iFSP1 (μM)
  IC50: 7.48 µM
[1]; murine isoform
  induction of ferroptosis: could only induce ferroptosis in the cell line expressing the human isoform
[2]
  inhibitor activity (ferroptosis induction): abolishes the inhibitor activity
[2]; [7]
  IC50: 5.62 µM
[3]
  inhibitor activity (ferroptosis induction): abolishes the inhibitor activity
[3]; [7]
  IC50: 5.62 µM
[4]
  inhibition of enzyme activity (NADH consumption): just the activity of the WT protein was inhibited by iFSP1
[5]
  inhibition of enzyme activity (NADH consumption): inhibited
[6]
  BODIPY-C11 oxidation induced by iFSP1: small increase
Water solubility
  water solubility: poor
